Laboratory results published in patent US9409904B2, “Compounds and compositions for use in augmentation of glucose” (YISSUM RESEARCH DEVELOPMENT COMPANY OF THE HEBREW …, priority 2011, dated 2016).
“Also recorded” adds a separate entry of the source. Read-outs that look alike come from different tables or passages of the source. One block for each compound: values may come before it.

Columns and labels:
AMPK = assay: Thr172 phosphorylation of AMPK in L6 myotubes, Western blot of whole cell lysates; format: cell-based; details: for Thr172 phosphorylation in AMPK / AMPK activation (result in words): L6 myotubes
Protocol: The effect of the various derivatives on the rate of glucose uptake in L6 myotubes was investigated. […] The abundance of GLUT1 and GLUT4 in the plasma membranes of L6 myotubes was determined in cells expressing GLUT-1myc or GLUT-4myc, as described before. […] In addition, the effect of compounds on the glucose—stimulated insulin secretion (GSIS) was investigated. Whole cell lysates were prepared as previously described with some minor modifications: the lysis buffer contained 50 mM Tris-HCl, pH 7.5, 1 mM EDTA, 1 mM EGTA, 1 mM Na3VO4, 150 mM NaCl, 50 mM NaF, 10 mM sodium-glycerophosphate, 5 mM sodium pyrophosphate, and 1 mM PMSF, supplemented with 0.1% (v/v) NP-40, 0.1% (v/v) 2-β-mercaptoethanol, and protease inhibitor cocktail (1:100 dilution). The cells were washed by ice-cold PBS, and 1 ml of lysis buffer was then added and incubated at 4° C. for 40 minutes. The resulting cell lysates were centrifuged at 8,700 g×30 minutes at 4° C. and the resulting supernatant fractions were separated and kept at −20° C. until used. Protein content in the supernatant was determined according to Bradford, using a BSA standard dissolved in the same buffer. […] Samples for Western blot analyses of GLUT1 and GLUT4 were prepared as described in [22]. The proteins were separated on 10% SDS-PAGE and Western blot analyses performed using antibodies according to our previously established protocols.

L6 myotubes = assay: [3H]-2-deoxy-D-glucose (dGlc) uptake assay in L6 myotubes; format: cell-based; details: for rate of glucose uptake compared to vehicle (DMSO) treated control / activity at 100 µM: 100 μM; for rate of glucose uptake compared to vehicle (DMSO) treated control: basal rate = 100%; for activity at 100 µM: Mean ± SD (n = 3), read-out: Effect on glucose uptake [100 μM] in L6 myotubes (%); for maximal effective concentration, glucose uptake: dose response, 5 h (3) or 12 h (4, 15)
Protocol: The effect of the various derivatives on the rate of glucose uptake in L6 myotubes was investigated. […] The abundance of GLUT1 and GLUT4 in the plasma membranes of L6 myotubes was determined in cells expressing GLUT-1myc or GLUT-4myc, as described before. […] In addition, the effect of compounds on the glucose—stimulated insulin secretion (GSIS) was investigated.
L6 myotubes were maintained as described in [21]. All experiments were conducted on fully differentiated myotubes.
The rate of [^3H]dGlc uptake in myotubes, in the absence or presence of insulin, was determined as described in [21]. […] […] The cultures were then rinsed 3 times with PBS at room temperature and incubated with PBS, pH 7.4, containing 0.1 mM dGlc and 1.0 μCi/ml [^3H]dGlc for 5 minutes at room temperature. At the end of the assay, the myotubes were lysed in 0.1% (w/v) SDS in water and taken for liquid scintillation.

INS-1E cells = assay: Glucose-stimulated insulin secretion (GSIS) from INS-1E cells, insulin RIA; format: cell-based
Protocol: INS-1E cells (passages 70-90) were grown and maintained as described in Merglen A et al. Endocrinology 2004, 145:667-678.
To investigate the glucose—stimulated insulin secretion (GSIS) and insulin radioimmunoassay-confluent cultures of INS-1E cells were pre-incubated for 30 min in KRBH-BSA buffer containing 3.3 mM glucose. This was followed by 1-h incubation at 3.3 and an additional 1-h at 16.7 mM glucose, as described (1). Aliquots from the incubation buffers were collected, cleared by centrifugation and frozen until used for insulin RIA. Total insulin content in β-cells was similarly measured in aliquots of cell extracts (1). RIA kits rat insulin (Linco Research, St. Charles, Mo.) was used according to manufacturers' protocols.

GLUT1 = assay: Total GLUT1 content in whole cell lysates of L6 myotubes, Western blot; format: cell-based
Protocol: (§1) Whole cell lysates were prepared as previously described with some minor modifications: the lysis buffer contained 50 mM Tris-HCl, pH 7.5, 1 mM EDTA, 1 mM EGTA, 1 mM Na3VO4, 150 mM NaCl, 50 mM NaF, 10 mM sodium-glycerophosphate, 5 mM sodium pyrophosphate, and 1 mM PMSF, supplemented with 0.1% (v/v) NP-40, 0.1% (v/v) 2-β-mercaptoethanol, and protease inhibitor cocktail (1:100 dilution). The cells were washed by ice-cold PBS, and 1 ml of lysis buffer was then added and incubated at 4° C. for 40 minutes. The resulting cell lysates were centrifuged at 8,700 g×30 minutes at 4° C. and the resulting supernatant fractions were separated and kept at −20° C. until used. Protein content in the supernatant was determined according to Bradford, using a BSA standard dissolved in the same buffer. Aliquots (5-60 μg of protein) were mixed with the sample buffer [62.5 mM Tris-HCl, pH 6.8, 2% (w/v) SDS, 10% (v/v) glycerol, 50 mM DTT, and 0.01% (w/v) bromophenol blue], heated at 95° C. for 5 minutes. Samples for Western blot analyses of GLUT1 and GLUT4 were prepared as described in [22]. The proteins were separated on 10% SDS-PAGE and Western blot analyses performed using antibodies according to our previously established protocols.

GLUT4 = assay: Total GLUT4 content in whole cell lysates of L6 myotubes, Western blot; format: cell-based
Protocol: as §1

GLUT4myc = assay: Colorimetric determination of surface GLUT4myc in L6 myotubes; format: cell-based
Protocol: The colorimetric detection of surface GLUT4myc or GLUT1myc in L6 myotubes was performed as described in [7]. Briefly, cultured myotubes were incubated with rabbit anti-C-Myc antibody (1:200 dilution), washed and fixed with 3% formaldehyde, and further interacted with goat HRP-conjugated anti-rabbit IgG (1:2000 dilution). Following the washes, a solution of OPD was added, and the culture plates were taken for absorbance measurement at 492 nM to estimate the relative abundance of GLUT1myc or GLUT4myc on the plasma membrane of the myotubes. The GLUT1myc and GLUT4myc L6 cell cultures were the courtesy of Dr. A. Klip, Hospital for Sick Children (Toronto, ON, Canada).
The capacity of compound 34 to increase the rate of glucose uptake by increasing GLUT4 content in the plasma membrane of myotubes was tested. […] The cells expressing GLUT1myc or GLUT4myc were treated with 25 μM of 34 or DMSO as described above. At the end of the incubation, the cultures were taken for immunodetection of surface GLUT1myc (open bars) or GLUT4myc (black bars), as described herein above.

Compound: NC1=NC(=O)/C(=C\C=C\c2ccc([N+](=O)[O-])o2)S1 [Compound 2, (E)-2-Amino-5-((E)-3-(5-nitrofuran-2-yl)allylidene)thiazol-4(5H)-one]
Thr172 phosphorylation in AMPK / AMPK activation (result in words) (AMPK): marginally induced | rate of glucose uptake in L6 myotubes (result in words) (L6 myotubes): slightly increased | concentrations at which effects on glucose uptake and Thr172 phosphorylation were observed (L6 myotubes; L6 myotubes, data not shown): above 500 μM

Compound: CCOc1ccc2nc(S)sc2c1 [Compound 4, 6-ethoxybenzo[d]thiazole-2-thiol]
Thr172 phosphorylation in AMPK / AMPK activation (result in words) (AMPK): significantly induced | persistence of stimulatory effect on glucose uptake (L6 myotubes): 24 h | rate of glucose uptake in L6 myotubes (result in words) (L6 myotubes): increase | rate of glucose uptake compared to vehicle (DMSO) treated control (L6 myotubes): 172.4%±12.4% | activity at 100 µM (L6 myotubes; Rattus norvegicus, L6, Table 2): 172 ± 12.4% | maximal effective concentration, glucose uptake (L6 myotubes): 100 µM

Compound: Nc1nncs1 [Compound 5, 2-amino-1,3,4-thiadiazole]
activity at 100 µM (L6 myotubes; Rattus norvegicus, L6, Table 1): 97.4 ± 2.9%

Compound: Cc1nnc(N)s1 [Compound 6, 2-amino-5-methyl-1,3,4-thiadiazole]
activity at 100 µM (L6 myotubes; Rattus norvegicus, L6, Table 1): 101 ± 5.5%

Compound: Cn1cnnc1S [Compound 7, 3-mercapto-4-methyl-4H-1,2,4-triazole]
activity at 100 µM (L6 myotubes; Rattus norvegicus, L6, Table 1): 107 ± 7.5%

Compound: Sc1ncccn1 [Compound 8, 2-mercaptopyrimidine]
activity at 100 µM (L6 myotubes; Rattus norvegicus, L6, Table 1): 100 ± 4.9%

Compound: Cn1ccnc1S [Compound 9, 2-mercapto-1-methylimidazole]
activity at 100 µM (L6 myotubes; Rattus norvegicus, L6, Table 1): 93 ± 9.5%

Compound: Nc1nccs1 [Compound 10, 2-aminothiazole]
activity at 100 µM (L6 myotubes; Rattus norvegicus, L6, Table 1): 95.7 ± 5.1%

Compound: SC1=NCCS1 [Compound 11, 2-mercapto-2-thiazoline]
activity at 100 µM (L6 myotubes; Rattus norvegicus, L6, Table 1): 106 ± 6.8%

Compound: Nc1ncc([N+](=O)[O-])s1 [Compound 12, 2-amino-5-nitrothiazole]
activity at 100 µM (L6 myotubes; Rattus norvegicus, L6, Table 1): 95.1 ± 8.9%

Compound: c1ccc2scnc2c1 [Compound 13, benzothiazole]
activity at 100 µM (L6 myotubes; Rattus norvegicus, L6, Table 2): 117 ± 9.7%

Compound: CCOc1ccc2nc(N)sc2c1 [Compound 14, 6-ethoxybenzothiazol-2-amine]
activity at 100 µM (L6 myotubes; Rattus norvegicus, L6, Table 2): 111 ± 14.2%

Compound: Oc1nc2ccc(Br)cc2s1 [Compound 15, 6-bromo-2-benzothiazolinone]
Thr172 phosphorylation in AMPK / AMPK activation (result in words) (AMPK): significantly induced | persistence of stimulatory effect on glucose uptake (L6 myotubes): 24 h | rate of glucose uptake in L6 myotubes (result in words) (L6 myotubes): increase | rate of glucose uptake compared to vehicle (DMSO) treated control (L6 myotubes): 132.9%±13.8% | activity at 100 µM (L6 myotubes; Rattus norvegicus, L6, Table 2): 133 ± 13.8% | maximal effective concentration, glucose uptake (L6 myotubes): 100 µM

Compound: c1cnc2[nH]nnc2c1 [Compound 16, 1H-1,2,3-triazolo[4,5]pyridine]
activity at 100 µM (L6 myotubes; Rattus norvegicus, L6, Table 2): 86.7 ± 17.9%

Compound: c1ccc2[nH]nnc2c1 [Compound 17, 1H-benzotriazole]
activity at 100 µM (L6 myotubes; Rattus norvegicus, L6, Table 2): 87.5 ± 11.4%

Compound: Oc1ccc2nc(S)sc2c1 [Compound 19, 2-mercaptobenzothiazol-6-ol]
rate of glucose uptake in L6 myotubes (result in words) (L6 myotubes): did not stimulate

melting point: 67 to 70 °C
Compound: CCCSc1nc2ccc(O)cc2s1 [Compound 20, 2-(propylthio)benzothiazol-6-ol]
rate of glucose uptake in L6 myotubes (result in words) (L6 myotubes): increase | rate of glucose uptake in L6 myotubes (result in words) (L6 myotubes; listed as EMM-45): increases; also recorded: induced an increase; also recorded: induces stimulation | glucose-stimulated insulin secretion from INS-1E cells (result in words) (INS-1E cells): augments | glucose stimulated insulin secretion in INS-1E (INS-1E cells; 10 μM, indicated time periods): increased | glucose-stimulated insulin secretion (INS-1E cells; 25 μM): increased

melting point: 105 to 110 °C
Compound: CCC(CC)CSc1nc2ccc(O)cc2s1 [Compound 21, 2-(2-ethylbutylthio)benzothiazol-6-ol]

melting point: 80 to 85 °C
Compound: CCCCSc1nc2ccc(O)cc2s1 [Compound 23, 2-(butylthio)benzothiazol-6-ol]

melting point: 175 to 178 °C
Compound: CCOc1ccc2nc(SCCC(=O)O)sc2c1 [Compound 25, 3-(6-ethoxybenzothiazol-2-ylthio)propanoic acid]
Thr172 phosphorylation in AMPK / AMPK activation (result in words) (AMPK): activated AMPK | time of maximal (peak) Thr172 phosphorylation in AMPK (AMPK; incubation time): 60 min | rate of glucose uptake in L6 myotubes (result in words) (L6 myotubes): increase | increase of glucose uptake in comparison with vehicle-treated cells (L6 myotubes; 50 μM, within 5 hours of incubation): 1.8 fold

Compound: CCOc1ccc2nc(S(N)(=O)=O)sc2c1 [Compound 30, 6-ethoxybenzothiazole-2-sulfonamide]
rate of glucose uptake in L6 myotubes (result in words) (L6 myotubes): inactive

melting point: 185 to 190 °C
Compound: CCOc1ccc2nc(SSc3nc4ccc(OCC)cc4s3)sc2c1 [Compound 31, 1,2-bis(6-ethoxybenzothiazol-2-yl)disulfane]
persistence of Thr172 phosphorylation of AMPK (AMPK; incubation time): up to 5 hours | time to induction of Thr172 phosphorylation in AMPK (AMPK; incubation time): ≤ 40 min | rate of glucose uptake in L6 myotubes (result in words) (L6 myotubes): increase; also recorded: substantially increased | Emax (L6 myotubes; Rattus norvegicus, L6, 150 μM within 5 hours of incubation, read-out: maximal effect on rate of glucose uptake, compared with a non-treated control): 189 ± 21.8% | rate of glucose uptake in L6 myotubes (result in words) (L6 myotubes; listed as EMM-5): increases | glucose-stimulated insulin secretion from INS-1E cells (result in words) (INS-1E cells): increases

Compound: c1ccc2[nH]c(SSc3nc4ccccc4[nH]3)nc2c1 [Compound 32, 1,2-di(1H-benziimidazol-2-yl)disulfane]
rate of glucose uptake in L6 myotubes (result in words) (L6 myotubes): no stimulatory effect

Compound: CCCNC(=O)CSc1nc2ccc(OCC)cc2s1 [Compound 33, 2-((6-ethoxybenzothiazol-2-yl)thio)-N-propylacetamide]
time to significant Thr172 phosphorylation of AMPK (AMPK; incubation time): 5 h | rate of glucose uptake in L6 myotubes (result in words) (L6 myotubes): increase; also recorded: markedly augmented | increase of rate of glucose uptake (L6 myotubes; 100 μM within 5 hours of incubation): 2 fold

Compound: insulin: Human insulin (Actrapid) purchased from Novo Nordisk [reference compound]
increase of rate of glucose uptake (L6 myotubes; insulin 100 nM, last 20 minutes of incubation): 45%±13% | total content of GLUT1 in myotubes (GLUT1): Neither compound altered | total content of GLUT4 in myotubes (GLUT4): Neither compound altered | time of effect on GLUT4myc translocation to the plasma membrane (GLUT4myc): 30 min | abundance of GLUT4myc in the plasma membrane (GLUT4myc; 25 μM of 34, insulin): increased
